Patent US7754718B2 (priority 2004, dated 2010)

Columns and labels:
[1] = test system: wt (ayw) HBV; assay: HBV DNA inhibition in HepG2.2.15 cells, Southern blot hybridization; assay type: cell-based; settings: Hepatitis B virus, HepG2.2.15, 144 h, read-out: EC50 (μM) wt (ayw), HepG2.2.15 cells, 6-day treatment, HBV DNA by Southern blot
Experimental: Southern blot hybridization was used to measure the effects of compounds on HBV DNA. Total DNA from cells was extracted using Dneasy Tissue kit (Qiagen Inc. Valencia, Calif.) and separated on a 0.8% agarose gel. Separated DNA was transferred to a Hybond-N+membrane (Amersham Pharmacia Biotech Inc. Piscataway, N.J.). Inhibition of viral DNA replication was assessed by comparison of the replicative HBV DNA from drug-treated versus untreated cultures using hybridization of the membrane with a [α-^32P] dCTP labeled whole HBV DNA probe followed by autoradiography. Quantitative densitometry was performed on a Molecular Dynamics Densitometer (Amersham Pharmacia Biotech Inc. Piscataway, N.J.) using ImageQuaNT image analysis software. The integrated HBV genome was used as the internal control to normalize the amount of DNA loaded. Northern blot hybridization was used to measure the effects of the compounds on HBV RNA. Total intracellular RNA was extracted from cells using Rneasy kit (Qiagen Inc. Valencia, Calif.). RNA was separated in a 1.2% formaldehyde agarose gel and transferred to a Hybond-N+ membrane (Amersham Pharmacia Biotech Inc. Piscataway, N.J.). The membrane was hybridized with the same probe mentioned above at 65° C. followed by autoradiography. GAPDH RNA level was used as an internal control to normalize the amount of RNA loaded. The decrease of HBV core protein expression was assessed by western blot. A cellular crude extract of […] cells was separated on a 12% SDS-PAGE gel and transferred onto a nitrocellulose membrane (Bio-rad Laboratories, Hercules, Calif.). Anti-HBV core antibody (DAKO Corp. Carpinteria, Calif.) and anti rabbit IgG secondary antibody (Sigma. St. Louis, Mo.) were added. Actin protein level was used as the internal control.
Hep.G2.2.15 is a hepatoblastoma cell line stably transfected with a HBV genome (ayw strain) (Sells et al., 1987, Proc Natl Acad Sci USA. 84 (4):1005-1009). […]
The effect of helioxanthin and 22 on HBV DNA in HepG2.2.15 cells, which is stably transfected with the HBV genome, was assessed. […]

[2] = test system: L526M/M550V (adr) HBV; assay: Extracellular HBV DNA in lamivudine-resistant DM2 cells, real-time PCR; assay type: cell-based; settings: Hepatitis B virus, 144 h, read-out: EC50 (μM) L526M/M550V (adr)
From the text: Hep.G2.2.15 is a hepatoblastoma cell line stably transfected with a HBV genome (ayw strain) (Sells et al., 1987, Proc Natl Acad Sci USA. 84 (4):1005-1009). W10, a HepG2 cell line, was transfected with an adr HBV strain (Fu et al., 2000, Antimicrob Agents Chemother 44 (12): 3402-3407; Fu et al., 1999, Biochem Pharmacol. 57 (12): 1351-1359). These cell lines were used to assess the antiviral activity of helioxanthin and 22. Various concentrations of the drugs in minimal essential medium with Earle's salts (MEME) containing 10% fetal bovine serum (FBS) were tested in 6-day-old cultures. The drugs were left in the culture medium for 3 days, then the medium was removed and fresh medium containing the same concentration of the drugs was added. At the end of another 3-day period, the culture medium and cells were harvested to measure the HBV replication level. The Lamivudine resistant cell line DM2 (Fu et al., 2000, Antimicrob Agents Chemother 44 (12): 3402-3407) is also a hepatoblastoma cell line stably transfected with HBV genome (adr strain) which contains the L526M/M550V double mutation. The culture conditions of DM2 are the same as that of HepG.2.2.15.
Quantitative real-time PCR was used to determine the extracellular HBV copy number in the medium of DM2 cells with and without drug treatment. […] Quantification of the copy number was determined by comparing the sample amount to a standard curve generated in each run. […]
W10 and DM2 cells (Fu et al., 2000, Antimicrob Agents Chemother 44 (12): 3402-3407), were used to evaluate the effects of these two compounds on wt HBV (adr strain) and its lamivudine-resistant HBV. […] After a 6-day treatment, the amount of HBV DNA, which was secreted into the medium, was evaluated using real-time PCR (FIG. 3). […] The real-time PCR method was validated by comparing the results of intracellular HBV DNA levels obtained from the Southern blot hybridization analysis to the results from real-time PCR that measured HBV DNA copies in the HepG2.2.15 medium with or without treatment of lamivudine. […]

| Structure (SMILES) | EC50 [1] | EC50 [2] |
| --- | --- | --- |
| O=C1OCc2c1cc1ccc3c(c1c2-c1ccc2c(c1)OCO2)OCO3 [Compound 2, 10-Benzo[1,3]dioxol-5-yl-9H-furo[3′,4′:6,7]naphtho[1,2-d][1,3]dioxol-7-one, reference compound] | ~1 µM | 0.1 µM |
| Nc1ccn([C@@H]2CS[C@H](CO)O2)c(=O)n1 [Compound 3TC, (−)-(2R,5S)-1-[2-(hydroxymethyl)oxathiolan-5-yl]cytosine] | 0.05 ± 0.03 µM | > 3 µM |
| COc1ccc(-c2c3c(cc4ccc5c(c24)OCO5)C(=O)NC3)cc1OC [Compound 22, 10-(3,4-Dimethoxy-phenyl)-8,9-dihydro-1,3-dioxa-8-aza-dicyclopenta[a,g]naphthalen-7-one] | ~0.08 µM | 0.0003 µM |
